The results in this text go back to ChEMBL document CHEMBL3044961, “Rapid synthesis, characterization, anticancer and antimicrobial activity studies of substituted thiadiazoles and their dinucleating ligand metal complexes” (Med Chem Res, 2012).

Calls of active or inactive are those of the source. The rule behind the calls is not given here.

One assay concerns U-937. Kind of assay: Cytotoxicity against Homo sapiens (human) U937 cells after 96 hr by MTT assay. It counts as functional, cell-based.
For a further assay, the system named is Aspergillus flavus. Kind of assay: Antifungal activity against Aspergillus flavus at 1 ug/ml after 48 hr by well diffusion method. It counts as functional. Particulars: read-out: IZ.
In the next assay the test system is Micrococcus luteus. Kind of assay: Antibacterial activity against Micrococcus luteus at 1 ug/ml after 24 hr by well diffusion method. Particulars: for zone of inhibition at 1 µg/mL: read-out: IZ. It counts as functional. (In general: A growth-free zone around the sample is the usual read-out of agar diffusion tests.)
Another assay has as its system Lasiodiplodia theobromae. Kind of assay: Antifungal activity against Lasiodiplodia theobromae at 1 ug/ml after 48 hr by well diffusion method. Particulars: for zone of inhibition at 1 µg/mL: read-out: IZ. It counts as functional.
A further assay concerns Bacillus subtilis. Briefly: Antibacterial activity against Bacillus subtilis at 1 ug/ml after 24 hr by well diffusion method. It counts as functional. Particulars: read-out: IZ.
Another assay has as its system Proteus vulgaris. Kind of assay: Antibacterial activity against Proteus vulgaris at 1 ug/ml after 24 hr by well diffusion method. Particulars: for zone of inhibition at 1 µg/mL: read-out: IZ. It is filed as functional.
The test system of the next assay is Enterococcus faecalis. Kind of assay: Antibacterial activity against Enterococcus faecalis at 1 ug/ml after 24 hr by well diffusion method. It counts as functional. Particulars: for zone of inhibition at 1 µg/mL: read-out: IZ.
The next assay has as its system HL-60. Kind of assay: Cytotoxicity against Homo sapiens (human) HL60 cells after 96 hr by MTT assay. It counts as functional, cell-based. On the technique in general: Formazan colour is commonly taken as a measure of viable cells.
The subject of another assay is Penicillium expansum. Kind of assay: Antifungal activity against Penicillium expansum at 1 ug/ml after 48 hr by well diffusion method. It is filed as functional. Particulars: read-out: IZ.
In a further assay the test system is Rhizoctonia solani. Briefly: Antifungal activity against Rhizoctonia solani at 1 ug/ml after 48 hr by well diffusion method. Particulars: for zone of inhibition at 1 µg/mL: read-out: IZ. It counts as functional.
A further assay concerns Streptococcus faecalis. Kind of assay: Antibacterial activity against Streptococcus faecalis at 1 ug/ml after 24 hr by well diffusion method. Particulars: read-out: IZ.
Assay [1] deals with Pectobacterium carotovorum. Kind of assay: Antibacterial activity against Pectobacterium carotovorum at 1 ug/ml after 24 hr by well diffusion method. Particulars: for zone of inhibition at 1 µg/mL: read-out: IZ. It counts as functional.
For the next assay, the system named is Klebsiella pneumoniae. Kind of assay: Antibacterial activity against Klebsiella pneumoniae at 1 ug/ml after 24 hr by well diffusion method. It counts as functional. Particulars: read-out: IZ.
In a further assay the test system is Escherichia coli. Kind of assay: Antibacterial activity against Escherichia coli at 1 ug/ml after 24 hr by well diffusion method. Particulars: read-out: IZ. It counts as functional.
The mark [2] stands for this setting: Homo sapiens, U-937, 96 h, read-out: IC50.
Where [3] appears, read: Homo sapiens, HL-60, 96 h, read-out: IC50.

With `CCOC(=O)/C(C#N)=N/Nc1nnc(C)s1`, the IC50 (usually the concentration that inhibits the measured activity by half) with U-937 (setting [2]) came to 19.3 µM; in the assay with HL-60 (setting [3]), 22.1 µM. Besides, the zone of inhibition at 1 µg/mL amounted to 11 mm in the assay on Aspergillus flavus; 7 mm in the assay with Lasiodiplodia theobromae; 8 mm with Bacillus subtilis; 8 mm in the assay on Proteus vulgaris; 7 mm with Enterococcus faecalis; 17 mm in the assay on Penicillium expansum. Further, the figures for the zone of inhibition at 1 µg/mL with Streptococcus faecalis, with Klebsiella pneumoniae and in the assay on Escherichia coli were 6 mm, 7 mm and 7 mm, respectively. The “inhibition zone (IZ)” value (in the assay on Micrococcus luteus; in the assay with Rhizoctonia solani; in [1]) was “inactive” throughout.
On to `CC1(C)S[C@@H]2[C@H](NC(=O)[C@H](N)c3ccccc3)C(=O)N2[C@H]1C(=O)O` [AMPICILLIN], for which the zone of inhibition at 1 µg/mL is 31 mm in the assay with Aspergillus flavus; 32 mm in the assay on Micrococcus luteus; 30 mm with Bacillus subtilis; 33 mm with Proteus vulgaris; 35 mm in the assay with Penicillium expansum; 29 mm in the assay with Rhizoctonia solani. Further, the zone of inhibition at 1 µg/mL in the assay with Streptococcus faecalis turned out to be 30 mm; in [1], 31 mm; in the assay on Klebsiella pneumoniae it was 29 mm; with Escherichia coli, 28 mm. Moreover, the “inhibition zone (IZ)” value in the assay on Lasiodiplodia theobromae and in the assay on Enterococcus faecalis was “inactive” each time.
`O=NN(CCCl)C(=O)NCCCl` [CARMUSTINE]: the IC50 in the assay on U-937 (setting [2]) stood at 12.3 µM; in the assay on HL-60 (setting [3]), 30.5 µM.
In the case of `Cc1nnc(NN=C(C#N)C#N)s1`, the IC50 result was “Not Active” in the assay on U-937 (u-937) and 28.1 µM with HL-60 (setting [3]). Further, the zone of inhibition at 1 µg/mL is 12 mm in the assay with Aspergillus flavus; 7 mm in the assay on Micrococcus luteus; 8 mm in the assay with Lasiodiplodia theobromae; 10 mm in the assay with Bacillus subtilis; 10 mm in the assay with Proteus vulgaris; 9 mm with Enterococcus faecalis. Besides, the zone of inhibition at 1 µg/mL in the assay with Penicillium expansum is 15 mm; in the assay on Streptococcus faecalis it was 6 mm; with Klebsiella pneumoniae, 8 mm; with Escherichia coli it was 6 mm. In addition, the “inhibition zone (IZ)” value (with Rhizoctonia solani; in assay [1]) was “inactive” each time.
With `CCc1nnc(NN=C(C#N)C#N)s1`, the zone of inhibition at 1 µg/mL in the assay on Aspergillus flavus came out at 12 mm; in the assay on Micrococcus luteus, 6 mm; in the assay with Lasiodiplodia theobromae it was 15 mm; in the assay with Bacillus subtilis it was 11 mm; in the assay with Enterococcus faecalis it was 7 mm; in the assay on Penicillium expansum it was 16 mm. Also, the zone of inhibition at 1 µg/mL worked out at 8 mm with Streptococcus faecalis, 7 mm in assay [1], 7 mm in the assay with Klebsiella pneumoniae and 9 mm in the assay with Escherichia coli. The “inhibition zone (IZ)” value in the assay with Proteus vulgaris and with Rhizoctonia solani was “inactive” each time.
As for `CC(=O)C(=NNc1nnc(C)s1)C(C)=O`, the IC50 in the assay with U-937 (setting [2]) was found to be 24.7 µM; in the assay with HL-60 (setting [3]), 23 µM. Further, the zone of inhibition at 1 µg/mL in the assay on Aspergillus flavus is 12 mm; with Lasiodiplodia theobromae it was 6 mm; with Bacillus subtilis, 7 mm; in the assay with Proteus vulgaris, 7 mm; in the assay with Enterococcus faecalis it was 8 mm; in the assay with Penicillium expansum, 18 mm. Besides, the zone of inhibition at 1 µg/mL in the assay with Rhizoctonia solani came to 4 mm; in the assay with Streptococcus faecalis, 7 mm; in assay [1] it was 6 mm; in the assay on Klebsiella pneumoniae, 8 mm; in the assay with Escherichia coli it was 8 mm. In the assay with Micrococcus luteus, the “inhibition zone (IZ)” value was “inactive”.
Consider `NC(=O)NO` [HYDROXYUREA], for which the IC50 result with HL-60 (hl-60) is “Not Active”.
For the compound `CCOC(=O)/C(C#N)=N/Nc1nnc(CC)s1`, the zone of inhibition at 1 µg/mL in the assay with Aspergillus flavus is 12 mm; in the assay with Micrococcus luteus, 6 mm; in the assay with Lasiodiplodia theobromae it was 10 mm; with Bacillus subtilis, 9 mm; with Enterococcus faecalis, 6 mm; in the assay on Penicillium expansum it was 16 mm. For the same compound, the zone of inhibition at 1 µg/mL with Streptococcus faecalis came to 5 mm; in the assay on Klebsiella pneumoniae it was 7 mm; in the assay on Escherichia coli it was 9 mm. Besides, the “inhibition zone (IZ)” value (in the assay with Proteus vulgaris; in the assay on Rhizoctonia solani; in assay [1]) was “inactive” in each case.
Turning to `O=c1[nH]cc(F)c(=O)[nH]1` [FLUOROURACIL], the IC50 was 4.7 µM with U-937 (setting [2]) and 266 µM in the assay with HL-60 (setting [3]).
Take `CCc1nnc(NN=C(C(C)=O)C(C)=O)s1`: the zone of inhibition at 1 µg/mL in the assay on Aspergillus flavus was found to be 10 mm; in the assay on Micrococcus luteus, 8 mm; in the assay with Lasiodiplodia theobromae it was 7 mm; in the assay with Bacillus subtilis it was 8 mm; with Proteus vulgaris, 6 mm; in the assay with Enterococcus faecalis, 8 mm. Also, the zone of inhibition at 1 µg/mL turned out to be 14 mm in the assay with Penicillium expansum; 6 mm in the assay with Rhizoctonia solani; 8 mm in the assay on Streptococcus faecalis; 7 mm in [1]; 5 mm in the assay on Klebsiella pneumoniae; 8 mm in the assay on Escherichia coli.
